Test results published in publication PMC7473772 (eLife, 2020).
Several values for one entry are separate records, joined by “and”; a condition that tells them apart may be missing. Equal entries are not always repeated. Where two headings read alike, the source gives them in different places.

Key:
Type in all cases: cell-based, Trypanosoma brucei brucei
tbaqp2/tbaqp3 null cells = experiment: microbe, parasite or virus in culture
[1] = tested on: tbaqp2/tbaqp3 null cells expressing TbAQP2WT; experiment: microbe, parasite or virus in culture
[2] = tested on: tbaqp2/tbaqp3 null cells expressing TbAQP2^S131P/S263A
[3] = tested on: tbaqp2/tbaqp3 null cells expressing TbAQP2^L258Y
[4] = tested on: tbaqp2/tbaqp3 null cells expressing TbAQP2^I110W
[5] = tested on: tbaqp2/tbaqp3 null cells expressing TbAQP2^L264R
[6] = tested on: tbaqp2/tbaqp3 null cells expressing TbAQP2^I190T
[7] = tested on: tbaqp2/tbaqp3 null cells expressing TbAQP2^W192G
[8] = tested on: tbaqp2/tbaqp3 null cells expressing TbAQP2^I190T/W192G
[9] = tested on: tbaqp2/tbaqp3 null cells expressing TbAQP2 L84W; experiment: microbe, parasite or virus in culture
[10] = tested on: tbaqp2/tbaqp3 null cells expressing TbAQP2 L118W; experiment: microbe, parasite or virus in culture
[11] = tested on: tbaqp2/tbaqp3 null cells expressing TbAQP2 L218W; experiment: microbe, parasite or virus in culture
[12] = tested on: tbaqp2/tbaqp3 null cells expressing TbAQP2 L84M; experiment: microbe, parasite or virus in culture
[13] = tested on: tbaqp2/tbaqp3 null cells expressing TbAQP2 L118M; experiment: microbe, parasite or virus in culture
[14] = tested on: tbaqp2/tbaqp3 null cells expressing TbAQP2 L218M; experiment: microbe, parasite or virus in culture
[15] = tested on: tbaqp2/tbaqp3 null cells expressing TbAQP3
[16] = tested on: tbaqp2/tbaqp3 null cells expressing TbAQP3^W102I/R256L
[17] = tested on: tbaqp2/tbaqp3 null cells expressing TbAQP3^W102I/R256L/Y250L

With `Cl.Cl.NCCS[As](SCCN)c1ccc(Nc2nc(N)nc(N)n2)cc1` [Cymelarsan] the “EC50 (% of aqp2/aqp3 null), MEAN” value (tbaqp2/tbaqp3 null cells) was 100.00 % of aqp2/aqp3 null, the “EC50 (% of aqp2/aqp3 null), single repeats” value (tbaqp2/tbaqp3 null cells) was 100.09 % of aqp2/aqp3 null and 107.11 % of aqp2/aqp3 null and 92.80 % of aqp2/aqp3 null and 105.96 % of aqp2/aqp3 null and 97.29 % of aqp2/aqp3 null and 96.75 % of aqp2/aqp3 null and 92.36 % of aqp2/aqp3 null and 100.54 % of aqp2/aqp3 null and the “EC50, MEAN (% KO)” value (tbaqp2/tbaqp3 null cells) was 100.00 % KO. For the same compound, the “EC50, percent of AQP2/3 null EC50” value (tbaqp2/tbaqp3 null cells) was 100.00%, the “EC50 as percent of AQP2/3 null EC50, MEAN” value (from here on “EC50 as percent … MEAN”) (tbaqp2/tbaqp3 null cells) was 100.00% and the “EC50 as percent of AQP2/3 null EC50, single repeats” value (“EC50 as percent … single repeats” for short) (tbaqp2/tbaqp3 null cells) was 100.0%. For the same compound, the EC50 (tbaqp2/tbaqp3 null cells; read-out: EC50, MEAN) was 0.0199 µM, the “EC50 (% of aqp2/aqp3 null), MEAN” value [1] was 14.85 % of aqp2/aqp3 null and the “EC50, MEAN (% KO)” value [1] was 21.40 % KO. The “EC50, percent of AQP2/3 null EC50” value [1] was 11.82% and 12.84% and 17.72% and 13.38%, the “EC50 as percent … MEAN” value [1] was 12.527% and 12.55% and the “EC50, percent of AQP2/3 null EC50” value [2] was 58.29%. The “EC50, percent of AQP2/3 null EC50” value [3] was 33.16%, the “EC50, percent of AQP2/3 null EC50” value [4] was 106.64% and the “EC50, percent of AQP2/3 null EC50” value [5] was 99.62%. The “EC50 as percent … MEAN” value [6] was 64.67%, the “EC50 as percent … MEAN” value [7] was 42.01% and the “EC50 as percent … single repeats” value [7] was 38.89% and 33.6754% and 48.5349% and 30.3438% and 47.7536% and 38.5508% and 45.4365% and 52.8716%. The “EC50 as percent … MEAN” value [8] was 95.01%, the “EC50 as percent … single repeats” value [8] was 84.5691% and 96.0784% and 104.69% and 94.6857% and the “EC50 (% of aqp2/aqp3 null), MEAN” value [9] was 100.47 % of aqp2/aqp3 null. The “EC50 (% of aqp2/aqp3 null), single repeats” value [9] was 103.60 % of aqp2/aqp3 null and 103.34 % of aqp2/aqp3 null and 94.46 % of aqp2/aqp3 null, the EC50 ([9]; read-out: EC50, MEAN) was 0.02 µM and the EC50 ([9]; read-out: EC50, single repeats) was 20.6 nM (2×) and 18.8 nM. For the same compound, the “EC50 (% of aqp2/aqp3 null), MEAN” value [10] was 92.14 % of aqp2/aqp3 null, the “EC50 (% of aqp2/aqp3 null), single repeats” value [10] was 88.70 % of aqp2/aqp3 null and 124.82 % of aqp2/aqp3 null and 62.91 % of aqp2/aqp3 null and the EC50 ([10]; read-out: EC50, MEAN) was 0.0184 µM. The EC50 ([10]; read-out: EC50, single repeats) was 0.0177 µM and 0.0249 µM and 0.0125 µM, the “EC50 (% of aqp2/aqp3 null), MEAN” value [11] was 94.01 % of aqp2/aqp3 null and the “EC50 (% of aqp2/aqp3 null), single repeats” value [11] was 100.13 % of aqp2/aqp3 null and 113.78 % of aqp2/aqp3 null and 68.13 % of aqp2/aqp3 null. The EC50 ([11]; read-out: EC50, MEAN) was 0.0187 µM, the EC50 ([11]; read-out: EC50, single repeats) was 0.02 µM and 0.0227 µM and 0.0136 µM and the “EC50, MEAN (% KO)” value [12] was 62.94 % KO. For the same compound, the EC50 ([12]; read-out: EC50, MEAN) was 0.0139 µM, the EC50 ([12]; read-out: EC50, single repeats) was 0.0147 µM and 0.0145 µM and 0.0124 µM and 0.0137 µM and 0.0105 µM and 0.0171 µM and the “EC50 (% of aqp2/aqp3 null), single repeats” value [13] was 106.00 % of aqp2/aqp3 null and 109.38 % of aqp2/aqp3 null and 101.17 % of aqp2/aqp3 null and 149.03 % of aqp2/aqp3 null and 147.52 % of aqp2/aqp3 null. For the same compound, the “EC50, MEAN (% KO)” value [13] was 122.62 % KO, the EC50 ([13]; read-out: EC50, MEAN) was 0.0343 µM and the EC50 ([13]; read-out: EC50, single repeats) was 0.0345 µM and 0.0356 µM and 0.0329 µM and 0.0246 µM and 0.0244 µM. The “EC50, MEAN (% KO)” value [14] was 58.15 % KO, the EC50 ([14]; read-out: EC50, MEAN) was 0.0112 µM and the EC50 ([14]; read-out: EC50, single repeats) was 0.0114 µM and 0.0113 µM and 0.0109 µM and 0.0123 µM and 0.0124 µM and 0.0158 µM. The “EC50, percent of AQP2/3 null EC50” value [15] was 114 ± 5%, the “EC50, percent of AQP2/3 null EC50” value [16] was 105 ± 8% and the “EC50, percent of AQP2/3 null EC50” value [17] was 159 ± 8%.
